Results published in patent US20240390400A1, “ENPP1 INHIBITORS AS INHIBITORS OF METASTASIS” (Angarus Therapeutics, Inc., priority 2021, published 2024).
Where “and” joins values, the source holds several entries; their conditions need not be identical. Identical values can stand only once.

Assays:
EMT6 tumor cells = assay: EMT-6 tumor model (tumor volume and lung metastasis); format: in vivo, female Balb/c mice
Experimental: Test animals were female Balb/c mice aged 5-8 weeks at inoculation.
The EMT6 tumor cells were maintained in vitro with DMEM medium supplemented with 10% fetal bovine serum at 37° C. in an atmosphere of 5% CO2 in air. The cells in exponential growth phase were harvested and quantitated by cell counter before tumor inoculation.
Each mouse was inoculated subcutaneously in the right flank region with EMT6 tumor cells (5×10^5) in 0.1 ml of PBS for tumor development.
Staggered inoculation was performed. G1, 2, 3, 6, 7 were inoculated one day before G4, 5, 8, 9, 10.
The randomization started when the mean tumor size reached approximately 80 (60-110) mm^3. 100 mice were enrolled in the study. All animals were randomly allocated to 10 study groups. Randomization was performed based on “Matched distribution” method (StudyDirector™ software, version 3.1.399.19).
Staggered randomization was performed. G1, 2, 3, 6, 7 were randomized one day before G4, 5, 8, 9, 10.
The date of tumor randomization was denoted as day 0.
After tumor cells inoculation, the animals were checked daily for morbidity and mortality. During routine monitoring, the animals were checked for any effects of tumor growth and treatments on behavior such as mobility, food and water consumption, body weight gain/loss (body weights were measured twice per week after randomization), eye/hair matting and any other abnormalities. Mortality and observed clinical signs were recorded for individual animals in detail.
Tumor volumes were measured twice per week in two dimensions using a caliper, and the volume was expressed in mm^3 using the formula: “V=(L×W×W)/2, where V is tumor volume, L is tumor length (the longest tumor dimension) and W is tumor width (the longest tumor dimension perpendicular to L). (Tumor weight was measured at the end of study). Dosing as well as tumor and body weight measurements were conducted in a Laminar Flow Cabinet.
The study was terminated at 4 weeks post randomization. Individual animals were euthanized when TV>3000 mm^3.
For comparison between two groups, a Student's t-test was performed. For comparison among three or more groups, an one-way ANOVA was performed followed by multiple comparison procedures. All data were analyzed using SPSS 18.0 and/or GraphPad Prism 5.0. P<0.05 is considered statistically significant.
Animals were treated with vehicle, cpd 76, radiotherapy, or anti-PD-L1, or a combination of treatments. Compound 76 was dosed 50 mg/kg and formulated 5 mg/ml in PBS. Radiotherapy used the X-RAD 225Cx SmART Small Animal Radiation Therapy System (Crownbio). Ten animals were in each group and dosing was performed as in Table 4.

[1] = Animal weight in 4T1 tumor model study; format: in vivo, Mus musculus, BALB/c; conditions: throughout the study; Groups 3 and 4 until Day 21, Groups 1 and 2 until Day 25
Experimental: All treatment groups were compared to the vehicle control given subcutaneously once a day on Days 7, 8, 9, 14, 15 and 16 (Group 1).
At necropsies, animals were weighed, and a final in vivo tumor volume measurement was performed.

| mean animal weights [1] | SMILES | effect on tumor growth (EMT6 tumor cells; Compound 76 50 mg/kg QD 1-7 combined with IR and aPD-L1 (triple combo)) | lung metastasis (animals with metastasis / animals) (EMT6 tumor cells; Compound 76 QD 1-7 d combined with aPD-L1 (Groups 9 and 10), study termination day 29) | effect on tumor volume / tumor growth (EMT6 tumor cells; single agent, Compound 76 50 mg/kg QD 1-7 only or 3 d on/4 d off for 4 weeks, aPD-L1 2.5 mg/kg) | lung metastasis (animals with metastasis / animals in group) (EMT6 tumor cells; single agent, study termination day 29) |
| --- | --- | --- | --- | --- | --- |
|  | COc1cccc2c(N3CCC(CCP(=O)(O)O)CC3)ncnc12 [Compound 76] | synergistic effect | 0/20 | no effect on tumor volume | 7/10 and 8/10 |
| continuously decreased | COc1cccc2c1C(=O)c1c(O)c3c(c(O)c1C2=O)C[C@@](O)(C(=O)CO)C[C@@H]3O[C@H]1C[C@H](N)[C@H](O)[C@H](C)O1 [doxorubicin, Doxorubicin] |  |  |  |  |
